# Data published in patent US20240398868A1 (GEL4MED, INC., priority 2020, published 2024).
# Test: Net charge and isoelectric point of peptide
# Format: physicochemical
# Conditions: pH 7
# From the text: The peptide may be purified. For example, the peptide may be lyophilized. […] Other peptides are within the scope of the disclosure.
# Exemplary peptides having a charge of +5 to +9 include […](d)[…], […](d)[…], and […](d)[…]. In other embodiments, the purified peptide may be substantially neutral. […] Net charge may be selected by peptide design. Design of electrostatic charge in the peptide hydrogel may allow control of charge interaction with cell membrane and proteins.
substance,measurement,value
VEVSVSVEV(d)PPTEVSVEVEV,net charge,net negative charge
